Data: patent US4732984A, “Piperazinoisothiazolones with psychotropic activity” (priority 1986, dated 1988)
Structures can show the parent of a compound that is named as a salt.

How the values were obtained:
[1] = target: limbic D-2 dopamine receptor (Rattus norvegicus, UniProt P61169); experiment: biochemical; assay type: binding, rats; details: for Ki: rat limbic tissue, 0.3 nM 3H-spiroperidol, 37° C., 10 min, read-out: Limbic D-2 Binding (Ki nM)
Description: The compounds of the invention are further studied for their ability to inhibit limbic D-2 dopamine receptor binding. This in vitro assay measures the ability of the compounds tested to bind to the dopamine receptor sites.
Several rats are decapitated and the brains are rapidly removed. Limbic brain tissue (nucleus accumbens, septal area, olfactory tubercle) is dissected and homogenized on ice in 9 volumes of buffer (50 mM Tris-HCl, 120 mM NaCl, 5 mM KCl, 1 mM CaCl2, 1 mM MgCl2, 0.1% L-ascorbic acid, 10 μM pargyline HCl, pH 7.1) using a Polytron homogenizer at setting 5 for three 15-sec bursts. The homogenate is then diluted 4-fold with buffer and centrifuged at 30,000×g for 20 min, and the supernatant is discarded. The pellet is resuspended in the same volume of buffer and recentrifuged as before, again discarding the supernatant. This pellet is then resuspended in the same volume of buffer used in the homogenization, and the protein content of this preparation is assyed by the Lowry method. The homogenate is stored frozen at -70° C. until use.
Thirty μL of the homogenate (0.02-0.3 mg protein/sample) are incubated with 0.3 nM ^3 H-spiroperidol (New England Nuclear) and various concentrations of test drug in a final volume of 1 ml of the above buffer for 10 min in a 37° C. water bath. At the end of the incubation, 3 ml of cold 50 mM Tris-HCl, pH 7.7, are added to each tube, and the contents are rapidly vacuum-filtered through Whatman GF/B glass-fiber filters. The filters are then rapidly washed 3 times with 3 ml of the same buffer, placed in scintillation vials, and shaken for 15 min with 10 ml of Hydrofluor (National Diagnostics) scintillation cocktail. The vials are then counted in a Packard 460CD scintillation counter.
Specific binding is defined as total binding less binding in the presence of 1 μM (+)butaclamol. Binding in the presence of various concentrations of test drug is expressed as a per cent of specific binding when no drug is present.

[2] = Conditioned avoidance (discrete trial) test; assay type: in vivo, Male CD rats; details: for ED50: Rattus norvegicus; for Activity at 40 mg/kg: 40 mg/kg perorally administered
Description: The antipsychotic activity of the compounds of the invention is assessed via the conditioned avoidance (discrete trial) test. This test has excellent clinical correlation for antipsychotic activity.
Male CD rats (Charles River) maintained at approximately 400-450 gm body weight are used. Rats trained previously are placed in plexiglass experimental chambers equipped with a response lever, house light, and sonalert. A steel grid floor is wired for presentation of electric shock. Each trial consists of a fifteen-second warning tone (conditioned stimulus), continuing for an additional fifteen seconds accompanied by electric shock, (unconditioned stimulus). The rat can terminate a trial at any point by depression of the response lever. A response during the initial fifteen-second warning tone ends the trial before shock delivery and is considered an avoidance response, while a response occurring during shock delivery is an escape response. Trials are presented on a variable interval schedule of two minutes. The session consists of sixty trials. Animals are run two to three times weekly with control sessions always preceding a drug run, and with at least one day intervening, compounds are administered i.p. or p.o. at appropriate pre-treatment times to a minimum of five to six rats at each dose level over a range of doses.
The following experimental parameters are recorded by computer: (1) the number of intertrial interval responses, (2) the number of avoidance responses, (3) the number of escape responses, and (4) the number of trials in which no response occurred.
Response counts are summed over all subjects at a given dose. […] This number is expressed as a percentage of the total trials. Control performance is arbitrarily assigned a value of 100% for avoidance and the dose calculated to produce a 50% block in avoidance responding (AB50 ) is obtained from a dose-effect regression line fitted by the method of least squares. Potential antipsychotic compounds suppress avoidance responding and increase escape responding.

[3] = Conditioned avoidance (shelf-jump response) test; assay type: in vivo, Male CD rats; details: Rattus norvegicus, ip, rats, read-out: AB50 (standard compounds)
Text: Another test designed to determine the potential antipsychotic activity of the compounds of the invention is the conditioned avoidance (shelf-jump response) test.
Male CD rats (Charles River) maintained at approximately 400-450 gm body weight are used. […] A moveable wall, controlled by a motor, determines whether the rat has access to the shelf at any time during the experiment. The experimental chamber also contains a house light and sonalert. A steel grid floor in the main chamber is wired for presentation of electric shock. Each trial consists of a fifteen-second warning tone (conditioned stimulus), continuing for an additional fifteen seconds accompanied by electric shock (unconditioned stimulus). A response (jumping onto the exposed shelf of the upper chamber) occurring during the initial fifteen-second warning tone is considered an avoidance response, while a response occurring during shock delivery is considered an escape response. Trials are presented on a fixed interval schedule of one minute. The session consists of thirty-six trials. […]
The following experimental parameters are recorded by computer: (1) the number of avoidance responses, (2) the number of escape responses, and (3) the number of trials in which no response occurred.
Response counts are summed over all subjects at a given dose. […] This number is expressed as a percentage of the total trials. […]

[4] = tested on: dopamine receptor; details: mice; 10 mg/kg s.c. apomorphine
[5] = po, perorally administered, discrete trial, rats, read-out: AB50 (the source's name)

Sequence of limbic D-2 dopamine receptor (P61169 whole entry): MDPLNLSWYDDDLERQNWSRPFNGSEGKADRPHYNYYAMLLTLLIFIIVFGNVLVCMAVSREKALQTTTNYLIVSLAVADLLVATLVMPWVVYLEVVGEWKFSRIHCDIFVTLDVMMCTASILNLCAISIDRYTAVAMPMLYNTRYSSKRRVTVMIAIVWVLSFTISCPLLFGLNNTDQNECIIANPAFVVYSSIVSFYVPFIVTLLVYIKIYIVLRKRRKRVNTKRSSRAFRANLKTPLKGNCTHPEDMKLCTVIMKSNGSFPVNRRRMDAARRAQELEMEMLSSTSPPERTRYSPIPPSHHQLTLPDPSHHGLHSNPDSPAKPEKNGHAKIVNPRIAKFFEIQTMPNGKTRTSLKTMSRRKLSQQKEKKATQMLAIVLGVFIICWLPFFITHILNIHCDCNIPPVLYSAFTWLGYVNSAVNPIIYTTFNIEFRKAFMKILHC

Structure (SMILES)	ED50 [2, 5]	Activity at 40 mg/kg [2]	Ki [1]	further results
O=C1[C@@H]2[C@@H]([C@H]3CC[C@@H]2O3)S(=O)(=O)N1CCCCN1CCN(c2cncc(Cl)n2)CC1 (relative stereo) [Example 8, 3aα,4β,7β,7aα-hexahydro-2-[4-[4-(6-chloro-2-pyrazinyl)-1-piperazinyl]butyl]-4,7-epoxy-1,2-benzisothiazol-3(2H)-one 1,1-dioxide, hydrochloride]	34.3 mg/kg			inhibition at 10 µM ([1]; read-out: Limbic D-2 Binding, % inhibition at 10 μM): 36%
O=C1[C@H]2[C@H]([C@@H]3CC[C@H]2O3)S(=O)(=O)N1CCCCN1CCN(c2cnccn2)CC1 (relative stereo) [Example 19, (3aα,4β,7β,7aα)-Hexahydro-2-[4-[4-(2-pyrazinyl)-1-piperazinyl]butyl]-4,7-epoxy-1,2-benzisothiazol-3(2H)-one 1,1-dioxide, dihydrochloride, hemihydrate]	47.9 mg/kg			
O=C1[C@@H]2[C@@H]([C@@H]3CC[C@H]2O3)S(=O)(=O)N1CCCCN1CCN(c2cncc(Cl)n2)CC1 (relative stereo) [Example 20, (3aα,4α,7α,7aα)-2-[4-[4-(6-Chloro-2-pyrazinyl)-1-piperazinyl]butyl]hexahydro-4,7-epoxy-1,2-benzisothiazol-3(2H)-one 1,1-dioxide, hydrochloride]		showed activity		
O=C1CC2(CCCC2)CC(=O)N1CCCCN1CCN(c2ncccn2)CC1 [Buspirone, 8-[4-[4-(2-pyrimidinyl)-1-piperazinyl]butyl]-8-azaspiro[4.5]decane-7,9-dione]	32 mg/kg			ED50 [3]: 9.44 mg/kg; Activity in apomorphine-induced stereotyped behavior assay [4]: inactive
O=C1C2C3C=CC(C3)C2S(=O)(=O)N1CCCCN1CCN(c2ncccn2)CC1 (stereo not drawn) [Example 1, 3a,4,7,7a-Tetrahydro-2-[4-[4-(2-pyrimidinyl)-1-piperazinyl]butyl]-4,7-methano-1,2-benzisothiazol-3(2H)-one 1,1-dioxide, dihydrochloride, hemihydrate]	45.4 mg/kg		1100 nM	
O=C1C2C3C=CC(CC3)C2S(=O)(=O)N1CCCCN1CCN(c2ncccn2)CC1 (stereo not drawn) [Example 2, 3a,3,7,7a-Tetrahydro-2-[4-[4-(2-pyrimidinyl)-1-piperazinyl]butyl]-4,7-ethano-1,2-benzisothiazol-3(2H)-one 1,1-dioxide, dihydrochloride, hydrate]			2000 nM	
CC1=C(C)CC2C(C1)C(=O)N(CCCCN1CCN(c3ncccn3)CC1)S2(=O)=O (stereo not drawn) [Example 3, 3a,4,7,7a-Tetrahydro-5,6-dimethyl-2-[4-[4-(2-pyrimidinyl)-1-piperazinyl]butyl]-1,2-benzisothiazol-3(2H)-one 1,1-dioxide dihydrochloride]				inhibition at 1 µM ([1]; read-out: Limbic D-2 Binding, % inhibition at 1 μM): 21%
O=C1C2C3C=CC(C4CC34)C2S(=O)(=O)N1CCCCN1CCN(c2ncccn2)CC1 (stereo not drawn) [Example 6, 4,4a,5,5a,6,6a-hexahydro-2-[4-[4-(2-pyrimidinyl)-1-piperazinyl]butyl]-4,6-etheno-2H-cyclopropa[f][1,2]benzisothiazol-3(3aH)-one 1,1-dioxide,dihydrochloride]			1410 nM	
O=C1c2ccccc2S(=O)(=O)N1CCCCN1CCN(c2nccnc2Cl)CC1 [Example 11, 2-[4-[4-(3-Chloro-2-pyrazinyl)-piperazinyl]butyl]-1,2-benzisothiazol-3(2H)-one 1,1-dioxide, hydrochloride]			493 nM	
CC1=C(C)CC2C(C1)C(=O)N(CCCCN1CCN(c3nccnc3Cl)CC1)S2(=O)=O (stereo not drawn) [Example 13, 2-[4-[4-(3-Chloro-2-pyrazinyl)-1-piperazinyl]butyl]-3a,4,7,7a-tetrahydro-5,6-dimethyl-1,2-benzisothiazol-3(2H)-one 1,1-dioxide, hydrochloride, hydrate]			507 nM	
Cl.Cl.O=C1C2C3C=CC(C3)C2S(=O)(=O)N1CCCCN1CCN(c2cncc(Cl)n2)CC1 (stereo not drawn) [Example 14, 2-[4-[4-(6-Chloro-2-pyrazinyl)-1-piperazinyl]butyl]-3a,4,7,7a-tetrahydro-4,7-methano-1,2-benzisothiazol-3(2H)-one 1,1-dioxide, dihydrochloride]	78.2 mg/kg			
O=C1C2C3CCC(C3)C2S(=O)(=O)N1CCCCN1CCN(c2ncccn2)CC1 (stereo not drawn) [Example 15, 2-[4-[4-(2-Pyrimidinyl)-1-piperazinyl]butyl]-3a,4,5,6,7,7a-hexahydro-4,7-methano-1,2-benzisothiazol-3(2H)-one 1,1-dioxide, dihydrochloride, hemihydrate]		showed activity		
Cl.O=C1C2C3CCC(C3)C2S(=O)(=O)N1CCCCN1CCN(c2cncc(Cl)n2)CC1 (stereo not drawn) [Example 16, 2-[4-[4-(6-Chloro-2-pyrazinyl)-1-piperazinyl]butyl]-3a,4,5,6,7,7a-hexahydro-4,7-methano-1,2-benzisothiazol-3(2H)-one 1,1-dioxide, hydrochloride]		showed activity		
O=C1C2C3CCC(C4CC43)C2S(=O)(=O)N1CCCCN1CCN(c2ncccn2)CC1 (stereo not drawn) [Example 17, Hexahydro-2-[4-[4-(2-pyrimidinyl)-1-piperazinyl]butyl-4,6-ethano-2H-cycloprop[f]-1,2-benzisothiazol-3(2H)-one 1,1-dioxide, hydrochloride]		showed activity		
O=C1C2C3C=CC(C4CC34)C2S(=O)(=O)N1CCCCN1CCN(c2cncc(Cl)n2)CC1 (stereo not drawn) [Example 18, 2-[4-[4-(6-Chloro-2-pyrazinyl)-1-piperazinyl]butyl]-4,4a,5,5a,6,6a-hexahydro-4,6-etheno-2H-cycloprop[f]-1,2-benzisothiazol-3(2H)-one 1,1-dioxide, hydrochloride]		showed activity	1030 nM	
O=C1C2C3C=CC(C4C=CC43)C2S(=O)(=O)N1CCCCN1CCN(c2ncccn2)CC1 (stereo not drawn) [Example 21, 3a,4,4a,6a,7,7a-Hexahydro-2-[4-[4-(2-pyrimidinyl)-1-piperazinyl]butyl]-4,7-ethenocyclobut[f]-1,2-benzisothiazol-3(2H)-one 1,1-dioxide, dihydrochloride]	39.4 mg/kg	showed activity		
O=C(CCCN1CCC(O)(c2ccc(Cl)cc2)CC1)c1ccc(F)cc1 [Haloperidol, reference compound]				AB50 (standard compounds) ([2]; i.p., discrete trial, rats): 0.18 mg/kg i.p.
O=C(CCCN1CCC2(CC1)C(=O)NCN2c1ccccc1)c1ccc(F)cc1 [Spiperone, reference compound]				ED50 ([2]; ip, discrete trial, rats, read-out: AB50 (standard compounds)): 0.13 mg/kg
